The values that follow come from ChEMBL document CHEMBL1136455, “The synthesis and antibacterial activity of 1,3,4-thiadiazole phenyl oxazolidinone analogues” (Bioorg Med Chem Lett, 2003).

Data set [1] relates to Streptococcus pneumoniae. The data set can be described thus: In vitro antibacterial activity against penicillin sensitive Streptococcus pneumoniae UC 9912. The format is functional.
The subject of data set [2] is Enterococcus faecalis. As to the kind of experiment: In vitro antibacterial activity against vancomycin resistant Enterococcus faecalis UC 9217 (VREA). The format is functional.
The test system of data set [3] is Staphylococcus aureus. As to the kind of experiment: In vitro antibacterial activity against methicillin resistant Staphylococcus aureus UC 12673 (MRSA). The format is functional.
In data set [4] the test system is Mus musculus. As to the kind of experiment: In vivo efficacy to protect the Staphylococcus aureus infected mouse and the activity was reported using Linezolid as a control with ED50 = 3.5. The format is functional.
In data set [5] the test system is Haemophilus influenzae. The data set can be described thus: In vitro antibacterial activity against ampicillin resistant Haemophilus influenzae 30063 (B-lactamase +). The format is functional.
Data set [6] relates to Moraxella catarrhalis. As to the kind of experiment: In vitro antibacterial activity against Moraxella catarrhalis 30607. Type of data set: functional.
For data set [7], the system named is Staphylococcus aureus. As to the kind of experiment: In vitro antibacterial activity against methicillin susceptible Staphylococcus aureus UC 9213 (MSSA). Type of data set: functional.
In data set [8] the test system is Staphylococcus epidermidis. As to the kind of experiment: In vitro antibacterial activity against methicillin resistant Staphylococcus epidermidis UC 12084. The format is functional.
For data set [9], the system named is Mus musculus. The data set can be described thus: In vivo efficacy to protect the Staphylococcus aureus infected mouse and the activity was reported using Linezolid as a control with ED50 =11.5. The format is functional.
Data set [10] in a line: Bioavailability in rat. Type of data set: ADME, organism-based. The following applies: in vivo.
The subject of data set [11] is Mus musculus. As to the kind of experiment: In vivo efficacy to protect the Staphylococcus aureus infected mouse and the activity was reported using Linezolid as a control with ED50 = 8. Type of data set: functional.
A short description of data set [12]: Clearance in rat. The format is ADME, organism-based. The following applies: in vivo.
Data set [13] relates to Mus musculus. The data set can be described thus: In vivo efficacy to protect the Staphylococcus aureus infected mouse and the activity was reported using Linezolid as a control with ED50 = 1.8. The format is functional.
In data set [14] the test system is Mus musculus. The data set can be described thus: In vivo efficacy to protect the Staphylococcus aureus infected mouse and the activity was reported using Linezolid as a control with ED50 = 2.9. The format is functional.
Data set [15] concerns Mus musculus. The data set can be described thus: In vivo efficacy to protect the Staphylococcus aureus infected mouse and the activity was reported using Linezolid as a control with ED50 = 2.2.
The subject of data set [16] is Mus musculus. As to the kind of experiment: In vivo efficacy to protect the Staphylococcus aureus infected mouse and the activity was reported using Linezolid as a control with ED50 = 3.8. Type of data set: functional.
Data set [17] concerns Mus musculus. The data set can be described thus: In vivo efficacy to protect the Staphylococcus aureus infected mouse and the activity was reported using Linezolid as a control with ED50 =[…]. The format is functional.
The subject of data set [18] is Staphylococcus epidermidis. The data set can be described thus: In vitro antibacterial activity against methicillin resistant Staphylococcus epidermidis UC 12084; range is 1-2. Type of data set: functional.

≈ marks a conversion by molar mass, not a printed value.

What is called ED50 is the midpoint of the dose-response relation. Low readings indicate an effect at a small dose, high ones a need for a large dose. In general, bioavailability refers to dose-corrected exposure relative to a reference, in per cent. Low readings indicate little systemic uptake, high ones much systemic uptake. The clearance is the rate of elimination divided by the concentration. Higher therefore signals efficient removal.

`CC(=O)NC[C@H]1CN(c2ccc(-c3nnc(C)s3)c(F)c2)C(=O)O1`: the MIC is < 0.125 µg/mL in data set [1]; 0.5 µg/mL (≈ 1.43 µM) in [2]; 0.5 µg/mL (≈ 1.43 µM) in [3]; 2 µg/mL (≈ 5.71 µM) in [5]; 2 µg/mL (≈ 5.71 µM) in data set [6]; 1 µg/mL (≈ 2.85 µM) in [7]. Further, the MIC in [8] was < 0.125 µg/mL. The ED50 in [4] is 6.2 mg/kg.
With `CC(=O)NC[C@H]1CN(c2ccc(-c3nnc(CC(N)=O)s3)c(F)c2)C(=O)O1`, the MIC in data set [1] was < 0.125 µg/mL; in data set [2], 2 µg/mL (≈ 5.08 µM); in data set [3], 4 µg/mL (≈ 10.2 µM); in data set [5], 4 µg/mL (≈ 10.2 µM); in data set [6], 8 µg/mL (≈ 20.3 µM); in data set [7] it was 4 µg/mL (≈ 10.2 µM). Moreover, the MIC in [8] was found to be 0.5 µg/mL (≈ 1.27 µM). Further, in data set [4], the ED50 is > 20 mg/kg.
In the case of `CC(=O)NC[C@H]1CN(c2ccc(-c3nnc(CN)s3)c(F)c2)C(=O)O1`, the MIC in data set [1] is < 0.125 µg/mL; in data set [2] it was 1 µg/mL (≈ 2.74 µM); in data set [3], 4 µg/mL (≈ 10.9 µM); in data set [5], 2 µg/mL (≈ 5.47 µM); in data set [6], 2 µg/mL (≈ 5.47 µM); in data set [7], 8 µg/mL (≈ 21.9 µM). Moreover, the MIC in data set [8] is 1 µg/mL (≈ 2.74 µM). Moreover, the 50% effect level in data set [9] (ED50) was put at a dose of 21.3 mg/kg.
In the case of `CNCc1nnc(-c2ccc(N3C[C@H](CNC(C)=O)OC3=O)cc2F)s1`, the MIC in data set [1] was < 0.5 µg/mL; in data set [2], 2 µg/mL (≈ 5.27 µM); in data set [3], 4 µg/mL (≈ 10.5 µM); in [5], 4 µg/mL (≈ 10.5 µM); in data set [6] it was 4 µg/mL (≈ 10.5 µM); in [7], 4 µg/mL (≈ 10.5 µM). In addition, in data set [8], the MIC came to 1 µg/mL (≈ 2.64 µM).
Regarding `C/C(S)=N/C[C@H]1CN(c2ccc(-c3nnc(CN)s3)c(F)c2)C(=O)O1`, the MIC in data set [1], in [2], in data set [5], in data set [6], in data set [7] and in [8] was < 0.5 µg/mL each time. In addition, the bioavailability in data set [10] was found to be 14%. In addition, the ED50 in data set [11] was > 20 mg/kg. Moreover, the clearance in data set [12] was 34.3 mL/min/kg.
On to `CC(=O)NC[C@H]1CN(c2ccc(-c3nncs3)c(F)c2)C(=O)O1`, for which the MIC was 0.25 µg/mL (≈ 0.743 µM) in data set [1]; 1 µg/mL (≈ 2.97 µM) in [2]; 1 µg/mL (≈ 2.97 µM) in data set [3]; 4 µg/mL (≈ 11.9 µM) in data set [5]; 4 µg/mL (≈ 11.9 µM) in [6]; 1 µg/mL (≈ 2.97 µM) in data set [7]. The same compound returned an MIC in [8] of 0.25 µg/mL (≈ 0.743 µM). In data set [13], this compound showed a 50% effective dose (ED50) of 2.2 mg/kg.
On to `CC(=O)NC[C@H]1CN(c2ccc(-c3nnc(CC#N)s3)c(F)c2)C(=O)O1`, for which the MIC in data set [1] amounted to 0.25 µg/mL (≈ 0.666 µM); in [2], 1 µg/mL (≈ 2.66 µM); in data set [3] it was 1 µg/mL (≈ 2.66 µM); in data set [5], 4 µg/mL (≈ 10.7 µM); in data set [6], 4 µg/mL (≈ 10.7 µM); in data set [7] it was 2 µg/mL (≈ 5.33 µM). Besides, the MIC in data set [8] turned out to be 0.25 µg/mL (≈ 0.666 µM). Also, the ED50 in [14] is > 20 mg/kg.
In the case of `CC(=O)CCc1nnc(-c2ccc(N3C[C@H](CNC(C)=O)OC3=O)cc2F)s1`, the MIC in [1] was < 0.125 µg/mL; in [2], 0.5 µg/mL (≈ 1.23 µM); in data set [3], 1 µg/mL (≈ 2.46 µM); in [5], 4 µg/mL (≈ 9.84 µM); in data set [6] it was 4 µg/mL (≈ 9.84 µM); in data set [7] it was 1 µg/mL (≈ 2.46 µM). In addition, the MIC in data set [8] worked out at 0.25 µg/mL (≈ 0.615 µM). The compound further came in with an ED50 in data set [15] of 7.6 mg/kg.
For `CCc1nnc(-c2ccc(N3C[C@H](CNC(C)=O)OC3=O)cc2F)s1`, the MIC in data set [1] was 0.25 µg/mL (≈ 0.686 µM); in data set [2] it was 0.5 µg/mL (≈ 1.37 µM); in data set [3], 0.5 µg/mL (≈ 1.37 µM); in data set [5], 4 µg/mL (≈ 11 µM); in data set [6], 2 µg/mL (≈ 5.49 µM); in data set [7], 1 µg/mL (≈ 2.74 µM). The compound further gave an MIC in data set [8] of 0.25 µg/mL (≈ 0.686 µM). Moreover, the ED50 in data set [16] was found to be 9.2 mg/kg.
With `CC(=O)NC[C@H]1CN(c2ccc(-c3nnc(C[S+](C)[O-])s3)c(F)c2)C(=O)O1` (stereo not given in full), the MIC in data set [1] amounted to 0.25 µg/mL (≈ 0.606 µM); in data set [2], 4 µg/mL (≈ 9.7 µM); in data set [3], 8 µg/mL (≈ 19.4 µM); in [5], 8 µg/mL (≈ 19.4 µM); in data set [6] it was 8 µg/mL (≈ 19.4 µM); in [7] it was 8 µg/mL (≈ 19.4 µM). The compound also gave an MIC in data set [8] of 0.5 µg/mL (≈ 1.21 µM).
Consider `CC(=O)NC[C@H]1CN(c2ccc(-c3nnc(C(N)=O)s3)c(F)c2)C(=O)O1`, for which the MIC was found to be 0.25 µg/mL (≈ 0.659 µM) in [1]; 1 µg/mL (≈ 2.64 µM) in [2]; 0.5 µg/mL (≈ 1.32 µM) in [3]; 16 µg/mL (≈ 42.2 µM) in [5]; 4 µg/mL (≈ 10.5 µM) in data set [6]; 0.5 µg/mL (≈ 1.32 µM) in [7]. In [8], this compound returned an MIC of 0.25 µg/mL (≈ 0.659 µM). The compound also showed an ED50 in data set [17] of 12.4 mg/kg.
For the compound `CC(=O)NC[C@H]1CN(c2ccc(N3CCOCC3)c(F)c2)C(=O)O1` [LINEZOLID], the MIC is 1 µg/mL (≈ 2.96 µM) in data set [18], 16 µg/mL (≈ 47.4 µM) in data set [5] and 8 µg/mL (≈ 23.7 µM) in [6].
